Experimental data reported in patent US20110098180A1, “Herbicide-Resistant Plants, And Polynucleotides And Methods For Providing Same” (United States Department of Agriculture, priority 2002, published 2011).

Target: hydrilla PDS position 304 Arginine, His-tagged (Hydrilla verticillata, UniProt Q66PY0)
Experiment: Cross-resistance testing, His-tagged column-purified PDS (Table 2A)
Assay type: biochemical
Settings: for R/S: Arginine at 304 (reference), Table 2A; for IC50: Arginine at 304, His-tagged, column-purified PDS, read-out: I50
Source text: The alternative approach utilized His-tagging and column purification of the mutant PDS protins.
In order to express pds in bacteria, deletion clones were made for each of the three potential start codons with and without ATG. […] The forward primers used were ORF (5′ […] 3′), ORF-ATG (5′ […] 3′), 3_ORF (5′[…] 3′) and 3_ORF-ATG (5′ […] 3′). The resulting plasmids were named pORF, pORF-ATG (minus ATG codon), p3ORF and p3ORF-ATG. The pds-containing EcoRI-fragments of these plasmids were subcloned into the EcoRI site of pRSETb vector (Invitrogen) for Histidine tagging and bacterial expression. The resulting constructs were pHy4SET, pHy4SET-ATG (minus ATG), p3ORFSET and p3ORFSET-ATG.
Primers used to replace Arg by His were Hyd-His-For (5′[…] 3′) and Hyd-His-Rev (5′ […] 3′); to replace Arg by Thr we used primers Hyd-Thr-For (5′[…] 3′) and Hyd-Thr-Rev (5′[…] 3′); to replace Arg by Ser we used Hyd-Ser-For (5′[…] 3′) and Hyd-Ser-Rev (5′[…] 3′); and Arg was replaced by Cys using Hyd-Cys-For (5′[…] 3′) and Hyd-Cys-Rev (5′[…] 3′). Resulting plasmids were named: p3ORFHisSet-ATG, p3ORFThrSet-ATG, p3ORFSerSet-ATG and p3ORFCysSet-ATG.
All pRSET derived constructs were transformed into BL21(DE3)pLysS cells (Invitrogen), induced with IPTG for protein expression, and the His tag overproduced proteins analyzed by Western blot using Anti-HisG antibody (Invitrogen, cat. #R940-25).
BL21(DE3)pLysS cells were grown overnight in 500 ml Luria Broth (LB) supplemented with carbenicillin (100 mg/l) and cloramphenicol (60 mg/l) at 37° C., and induced with 0.3 mM isopropylthio-β-D-galactoside (IPTG) for 3 hrs. Cells were lysed using a French press (Spectronics Instrument) at 20,000 psi and overexpressed PDS was purified on a nickel activated Hitrap Chelating HP column according to the manufacturers instructions (Amersham Bioscience).
Generally, PDS protein fractions prepared as described above (Non-His-tagged and His-tagged) were mixed with a soluble fraction from phytoene-producing E. coli cells. […] This E. coli strain was separately cultured and lysed, and its soluble components collected (“the EB extract”) in a fashion similar to that described above for the PDS-producing cells.
His-tagged, purified proteins prepared as described above were transferred to the assay buffer on a PD10 column (Amersham Bioscience) and the concentration was adjusted to 100 μg/mL. Crude extracts containing phytoene were produced in E. coli JM101/pACCRT-EB containing geranylgeranyl pyrophosphate synthase and phytoene synthase enzymes from Erwinia uredova as described above. The reaction assays consisted of 50 μg PDS in 500 μl of assay buffer (200 mM Sodium Phosphate, pH 7.2) and 500 μl of pACCRT-EB extract. The herbicide (10 μL in MeOH) was added to the 500 μl of PDS extract and incubated on ice for 15 minutes prior to mixing it with the EB extract. […] Dose-response curves were fitted to the four-parameter logistic function. […] I^50 values were calculated from the regressions.

hydrilla PDS position 304 Arginine, His-tagged, sequence (Q66PY0 77-580): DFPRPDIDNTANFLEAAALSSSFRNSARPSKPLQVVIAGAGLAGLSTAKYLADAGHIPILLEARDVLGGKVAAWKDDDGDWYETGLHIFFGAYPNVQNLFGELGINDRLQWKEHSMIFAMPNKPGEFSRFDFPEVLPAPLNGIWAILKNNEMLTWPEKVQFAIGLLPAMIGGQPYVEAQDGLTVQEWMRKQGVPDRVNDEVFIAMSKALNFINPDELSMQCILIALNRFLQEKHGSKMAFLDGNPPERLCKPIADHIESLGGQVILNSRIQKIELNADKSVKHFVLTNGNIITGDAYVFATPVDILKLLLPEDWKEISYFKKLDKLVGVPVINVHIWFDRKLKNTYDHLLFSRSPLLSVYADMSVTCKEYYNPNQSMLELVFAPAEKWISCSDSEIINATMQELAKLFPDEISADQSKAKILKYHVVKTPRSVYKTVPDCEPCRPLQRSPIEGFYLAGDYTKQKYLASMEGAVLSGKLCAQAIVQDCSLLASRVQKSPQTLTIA

Compound: CCC(Oc1ccc(F)c(C(F)(F)F)c1)C(=O)NCc1ccccc1 (centres unmarked) [Beflubutamid]
- R/S: 1
- IC50: 72 µM

Compound: O=C(Nc1ccc(F)cc1F)c1cccnc1Oc1cccc(C(F)(F)F)c1 [Diflufenican]
- R/S (30 min): 1
- IC50: 101 µM

Compound: O=C1C(Cl)C(CCl)CN1c1cccc(C(F)(F)F)c1 (centres unmarked) [Fluorochloridone]
- R/S (30 min): 1
- IC50: 130 µM

Compound: CNC1=C(c2cccc(C(F)(F)F)c2)C(=O)C(c2ccccc2)O1 (centres unmarked) [Flurtamone]
- R/S (30 min): 1
- IC50: 300 µM

Compound: CNc1cnn(-c2cccc(C(F)(F)F)c2)c(=O)c1Cl [Norflurazon]
- IC50: 50 µM

Compound: O=C(Nc1ccc(F)cc1)c1cccc(Oc2cccc(C(F)(F)F)c2)n1 [Piconilafen, Picolinafen]
- IC50: 327 µM

Compound: Fluridone
- R/S (30 min): 1
